Assay results as given in the supplement of paper PMC10307832.

Columns and labels:
Experiment in all cases: relative viability (nuclei count vs DMSO), 5 days (fraction); higher = more cells survive
[1] = compound: CC[C@H](CO)Nc1nc(NCc2ccccc2)c2ncn(C(C)C)c2n1 [Seliciclib] + CC(=O)c1c(C)c2cnc(Nc3ccc(N4CCNCC4)cn3)nc2n(C2CCCC2)c1=O [Palbociclib] (partner 0.5 µM)
In short: (§1)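 Values are medians from duplicate plates. Each reflects relative viability, defined as the nuclei count of treated wells over that of vehicle wells. Lung cancer cell lines in 1536-well plates were pin-tool dosed one day after seeding with one drug alone or with a fixed anchor-drug dose plus five library-drug doses (not always all listed) in √10 steps, then fixed, stained and imaged at 4× after 5 days.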

[2] = compound: CC[C@H](CO)Nc1nc(NCc2ccccc2)c2ncn(C(C)C)c2n1 [Seliciclib] + COc1cc2c(Oc3ccc(NC(=O)C4(C(=O)Nc5ccc(F)cc5)CC4)cc3F)ccnc2cc1OCCCN1CCOCC1 [Foretinib] (partner 0.25 µM)
In short: as §1

[3] = compound: CC[C@H](CO)Nc1nc(NCc2ccccc2)c2ncn(C(C)C)c2n1 [Seliciclib] + CS(=O)(=O)N1CCN(Cc2cc3nc(-c4cccc5[nH]ncc45)nc(N4CCOCC4)c3s2)CC1 [Pictilisib] (partner 1 µM)
In short: as §1

[4] = compound: CC[C@H](CO)Nc1nc(NCc2ccccc2)c2ncn(C(C)C)c2n1 [Seliciclib] + CC(C)C[C@H](NC(=O)[C@H](Cc1ccccc1)NC(=O)c1cnccn1)B(O)O [Bortezomib] (partner 0.002 µM)
In short: as §1

| Cell Line | relative viability ([1]; first compound 0.253 µM) | relative viability ([1]; first compound 0.8 µM) | relative viability ([1]; first compound 2.53 µM) | relative viability ([1]; first compound 8 µM) | relative viability ([2]; first compound 0.08 µM) | relative viability ([2]; first compound 0.253 µM) | relative viability ([2]; first compound 0.8 µM) | relative viability ([2]; first compound 2.53 µM) | relative viability ([2]; first compound 8 µM) | relative viability ([3]; first compound 0.08 µM) | relative viability ([3]; first compound 0.253 µM) | relative viability ([3]; first compound 0.8 µM) | relative viability ([3]; first compound 2.53 µM) | relative viability ([3]; first compound 8 µM) | relative viability ([4]; first compound 0.08 µM) | relative viability ([4]; first compound 0.253 µM) | relative viability ([4]; first compound 0.8 µM) | relative viability ([4]; first compound 2.53 µM) | relative viability ([4]; first compound 8 µM) | relative viability ([1]; first compound 0.08 µM) |
| --- | --- | --- | --- | --- | --- | --- | --- | --- | --- | --- | --- | --- | --- | --- | --- | --- | --- | --- | --- | --- |
| LOU-NH91 | 0.56 | 0.513 | 0.492 | 0.466 | 0.9 | 0.904 | 0.885 | 0.905 | 0.739 | 0.49 | 0.573 | 0.495 | 0.484 | 0.468 | 0.5 | 0.519 | 0.518 | 0.408 | 0.399 |  |
| LU99A | 0.332 | 0.357 | 0.318 | 0.275 | 0.83 | 0.532 | 0.825 | 0.717 | 0.517 | 0.349 | 0.301 | 0.374 | 0.229 | 0.284 | 1.16 | 1.05 | 1.01 | 0.94 | 0.803 | 0.378 |
| LXF-289 | 0.677 | 0.59 | 0.543 | 0.501 | 0.95 | 1.16 | 0.973 | 0.943 | 0.86 | 0.779 | 0.86 | 0.701 | 0.595 | 0.724 | 0.981 | 1.11 | 0.904 | 0.971 | 0.838 | 0.561 |
| NCI-H23 | 0.49 | 0.416 | 0.335 | 0.258 | 0.977 | 1.09 | 0.96 | 0.88 | 0.592 | 0.507 | 0.462 | 0.395 | 0.283 | 0.365 | 0.84 | 0.776 | 1.1 | 0.496 | 0.895 | 0.548 |
| NCI-H322M | 0.538 | 0.467 | 0.428 | 0.431 | 1 | 1.23 | 0.907 | 0.865 | 0.752 | 0.523 | 0.583 | 0.494 | 0.449 | 0.379 | 1.21 | 1.4 | 1.18 | 1.23 | 1.09 | 0.472 |
| NCI-H441 | 0.217 | 0.203 | 0.144 | 0.14 | 0.791 | 0.86 | 0.969 | 0.93 | 0.623 | 0.49 | 0.635 | 0.531 | 0.469 | 0.377 | 0.662 | 0.429 | 0.314 | 0.406 | 0.531 | 0.199 |
| NCI-H460 | 0.186 | 0.169 | 0.117 | 0.0761 | 0.993 | 1.05 | 1 | 1.06 | 0.882 | 0.367 | 0.376 | 0.275 | 0.248 | 0.252 | 1.14 | 1.26 | 1.09 | 1.48 | 0.912 | 0.203 |
| NCI-H520 | 0.187 | 0.17 | 0.189 | 0.203 | 0.759 |  | 0.826 | 0.76 | 0.858 | 0.305 | 0.326 | 0.287 | 0.318 | 0.252 | 0.521 | 0.507 | 0.581 | 0.679 | 0.429 | 0.237 |
| NCI-H647 | 0.188 | 0.395 | 0.296 | 0.216 | 1.16 |  | 1.13 | 1.19 | 1.09 | 0.367 | 0.45 | 0.25 | 0.296 | 0.248 | 0.789 | 0.849 | 0.941 | 1.05 | 0.891 | 0.321 |
| NCI-H650 | 0.264 | 0.402 | 0.248 | 0.234 | 1.03 | 1.03 | 0.912 | 0.842 | 0.856 | 0.887 | 0.869 | 1.04 |  | 0.772 | 0.764 | 0.813 | 1.15 |  | 0.682 | 0.357 |
| NCI-H661 | 0.401 | 0.359 | 0.286 | 0.292 | 1.03 | 0.936 | 0.975 | 0.945 | 0.636 | 0.362 | 0.404 | 0.375 | 0.295 | 0.354 | 0.778 | 0.871 | 0.675 | 0.79 | 0.58 | 0.396 |
| NCI-H727 | 0.601 | 0.555 | 0.577 | 0.575 | 0.905 | 0.917 | 0.716 | 0.661 | 0.896 | 0.43 | 0.338 | 0.197 | 0.232 | 0.296 | 0.759 | 0.774 | 0.578 | 0.585 | 0.716 | 0.619 |
| NCI-H838 | 0.257 | 0.211 | 0.169 | 0.197 | 0.902 | 0.928 | 0.998 | 1.11 | 0.808 | 0.469 | 0.468 | 0.432 | 0.408 | 0.294 | 0.82 | 0.879 | 0.762 | 0.727 | 0.487 | 0.216 |
| NCI-H1355 | 0.331 | 0.364 | 0.371 | 0.341 | 0.95 | 0.976 | 0.706 | 1.03 | 0.93 | 0.426 | 0.452 | 0.359 | 0.452 | 0.429 | 1.16 | 1.1 | 1.23 | 1.03 | 1.11 | 0.374 |
| NCI-H1437 | 0.324 | 0.298 | 0.221 | 0.223 | 1.2 | 1.31 | 1.26 | 1.31 | 1.18 | 0.484 | 0.377 | 0.439 | 0.394 | 0.331 | 0.436 | 0.524 | 0.47 | 0.422 | 0.39 | 0.323 |
| NCI-H1650 | 0.317 | 0.332 | 0.353 | 0.216 | 0.984 | 1.1 | 0.956 | 1.35 | 0.981 | 0.579 | 0.631 | 0.526 | 0.466 | 0.354 | 0.214 | 0.217 | 0.2 | 0.21 | 0.178 | 0.369 |
